Results taken from patent US20250313544A1, “INHIBITORS OF GLUTATHIONE S-TRANSFERASE ZETA 1 (GSTZ1) AND METHODS OF USE” (H. LEE MOFFITT CANCER CENTER AND RESEARCH INSTITUTE, INC., priority 2022, published 2025).

Tests used:
H1792 LUAD cells = assay: Chemical proteomics target profiling in live H1792 cells (label-free LC-MS/MS, comparison with control probe 22 and panel-wide cross-comparison); type: binding, human
Protocol: Cells were grown in 10 cm dishes to ˜90% confluence at the time of treatment. Cells were carefully washed twice with Dulbecco's phosphate buffered saline (DPBS) and replenished with fresh serum-free RPMI 1640 media containing indicated probes ([…]), competitors, or DMSO. Without competitors, cells were incubated with probes for 30 min at 37° C. and then exposed to 365 nm UV light for 15 min on ice. With competitors, cells were pre-treated with competitors for 30 min and photoactivated for 15 min. Probes were then added to cells for an additional 30 min incubation. For no UV experiments, cells were incubated for 15 min under ambient light. Cells were harvested in cold DPBS and pellets were washed with cold DPBS (2 X). Pellets were either directly processed or kept frozen at −80° C. until use. Cells pellets were lysed for 30 min in cold DPBS (100-300 uL) per culture dish supplemented with 1% NP-40, followed by sonication (5 pulses, 4 s on, 20 s off, output setting=4). Lysates were centrifuged at 20,817×g for 20 min, and supernatant (soluble proteome) was used for further processing. Protein concentrations were determined using Bradford assays.
Protein pellets were transferred to 5 mL microcentrifuge tubes and then resuspended in a freshly-prepared solution of proteomics-grade urea (320 μL, 6 M Urea in DPBS) containing 80 μL of 10% SDS and dissolved by sonication. To each solution, 4 mL DPBS was added (final conc: 0.2%, total volume) and incubated with pre-equilibrated NeutrAvidin agarose resin (100 μL 1:1 slurry, Pierce, Cat. 29201) for 2 hrs at ambient temperature on a rotator. The NeutrAvidin beads were collected by centrifugation (1,400×g, 2 min) and sequentially washed with 0.2% SDS in DPBS (2×2 mL), detergent-free DPBS (2×2 mL), and 50 mM ammonium bicarbonate (AMBIC, 2×2 mL). Beads were resuspended with 200 μL 50 mM AMBIC and incubated with TCEP 50 μL (100 mM in 50 mM AMBIC) for 30 min at 37° C. Iodoacetamide (50 μL of 200 mM in 50 mM AMBIC) was added and incubated for 30 min at ambient temperature. The beads were again washed with 2×1 mL 50 mM AMBIC and resuspended in 100 μL of fresh 50 mM AMBIC and treated with 2 μg of sequencing grade modified trypsin (Promega, #V5111) at 37° C. overnight. These samples were acidified with formic acid (final conc: 5%) and centrifuged (1,000×g, 2 min). The supernatant was collected and desalted through ZIPTIPs, and the desalted peptide mixture were dried in vacuum and reconstituted with HPLC buffer (2% acetonitrile, 0.1% formic acid) for LC-MS/MS analysis. Tryptic peptides of avidin were excluded from MS2 analysis to maximize detection of the protein targets (Table S7). Samples were analyzed using LC-MS/MS after being spiked with 50 fmol/uL PRTC standards (88320, Pierce Retention Time Calibration Mixture, Thermo Fisher, MA). A nanoflow ultra high performance liquid chromatograph and nanoelectrospray orbitrap mass spectrometer (RSLCnano and Q Exactive plus, Thermo) were used for LC-MS/MS. The sample was loaded onto a pre-column (C18 PepMap100, 2 cm length×100 μm ID packed with C18 reversed-phase resin, 5 μm particle size, 100 Å pore size) and washed for 8 minutes with aqueous 2% acetonitrile and 0.1% formic acid. Trapped peptides were eluted onto the analytical column, (C18 PepMap100, 25 cm length×75 μm ID, 2 μm particle size, 100 Å pore size, Thermo). A 120-minute gradient was programmed as: 95% solvent A (aqueous 2% acetonitrile+0.1% formic acid) for 8 minutes, solvent B (aqueous 90% acetonitrile+0.1% formic acid) from 5% to 38.5% in 90 minutes, then solvent B from 50% to 90% B in 7 minutes and held at 90% for 5 minutes, followed by solvent B from 90% to 5% in 1 minute and re-equilibration for 10 minutes using a flow rate of 300 nl/min. Spray voltage was 1900 V. Capillary temperature was 275° C. S lens RF level was set at 40. Top 16 tandem mass spectra were collected in a data-dependent manner. The resolution for MS and MS/MS were set at 70,000 and 17,500 respectively. […]

GSTZ1 = biological target: T1, GSTZ1 (Homo sapiens, UniProt O43708); assay: GSTZ1 enzymatic activity assay (CNBF-GSH adduct absorbance at 420 nm); type: biochemical; design: dose or concentration left out as unconfirmed; settings: without UV irradiation, 10 mins, room temperature
T1 sequence (O43708 1-216): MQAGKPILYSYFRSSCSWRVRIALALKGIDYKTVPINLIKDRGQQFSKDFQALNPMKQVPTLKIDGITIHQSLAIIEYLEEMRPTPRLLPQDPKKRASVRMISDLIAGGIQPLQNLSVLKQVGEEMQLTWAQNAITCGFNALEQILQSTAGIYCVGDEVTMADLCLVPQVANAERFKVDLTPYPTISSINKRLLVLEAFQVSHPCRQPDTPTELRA
Protocol: The GSTZ1 activity assay with its substrate 4-Chloro-7-nitrobenzofurazan (CNBF) was read at 420 nm, which indicates the absorbance of CNBF-GSH adducts as previously reported^61. For experiments without UV irradiation, the reaction was started by adding DMSO or probe 17, 10 μg of recombinant GSTZ1 proteins, 0.2 mM of CNBF, and 2 mM of GSH at room temperature in a final volume of 100 μl HEPES buffer at pH 5.5. For UV irradiation experiments, GSTZ1 protein was incubated with DMSO or probe 17 for 10 minutes under UV light. Each reaction was performed as at least two biological replicates. Spectrophotometry measurements were recorded using an M5 Spectramax plate reader (Molecular devices). Data was processed and analyzed using Excel and GraphPad Prism 9.0. Optical density (OD) readouts of GSTZ1-catalyzed reactions were corrected by subtracting measurements of non-enzymatic reactions. Relative GSTZ1 activity was calculated by normalizing corrected OD readouts of GSTZ1-catalyzed reactions with probe 17 to that of GSTZ1-catalyzed reactions without probe 17. For assays with UV irradiation, recombinant GSTZ1 was produced in-house. To this end, 6His-GFP tag full length human GSTZ1 (Uniprot ID: 043708) with TEV protease cleavage site in pET28-a-(+) vector (GeneScript) was transformed into BL21 DE3 cells (Cat #EC0114, ThermoFisher). […]

## C#CCCC1(CCC(=O)N2CCC(COc3nc4ccccc4nc3C)CC2)N=N1 [Probe 17, 3-(3-(but-3-yn-1-yl)-3H-diazirin-3-yl)-1-(4-(((3-methylquinoxalin-2-yl)oxy)methyl)piperidin-1-yl)propan-1-one]
H1792 LUAD cells; compared to control probe and probe panel
  prominent target protein predominantly enriched by the probe: GSTZ1
H1792 LUAD cells; many other enriched putative targets vs. negative control probe alone
  selectivity of probe for GSTZ1: should not be considered a selective probe for GSTZ1
GSTZ1
  GSTZ1 activity reduced by: 68%
